Earlier results on eight compounds are cited in patent publication US20110052727A1, “Anti Influenza Nutritional Supplements” (priority 2009, published 2011).

Like-named read-outs stand apart in the source and are kept apart here.

In data set [1] the test system is influenza A/PR/8 virus.
Data set [2] has as its system influenza A/Kumamoto/1/65 virus.
Data set [3] deals with influenza A/WS/33 virus.
Data set [4] concerns MDCD cells. The following applies: 100 μg/ml.
Data set [5] deals with MDCK cells. The following applies: up to 1 mM.
The test system of data set [6] is influenza virus A/Puerto Rico/8/34 (H1N1).
In data set [7] the test system is influenza virus A/Udorn/317/72(H3N2). The settings on record: quercetin orally 1 mg/day for 5 consecutive days.
Data set [8] concerns influenza A/Bangkok/1/79 virus. The following applies: selenium adequate diet, vs deficient diet still severe at day 21.
Data set [9] has as its system influenza A Bangkok 1/79. The settings on record: Se- vs Se+ conditions; 24 hours post infection.
In data set [10] the test system is Influenza A Virus (Strain A/Yamagata/120/86 H1N1). The following applies: 1.5 μM; 60 min treatment.
Data set [11] concerns MDCK cells.
Data set [12] concerns influenza A/Chile/1/83 (H1N1) virus. The following applies: MDCK cells; read-out: 50% effective inhibition concentration (EC50).
In data set [13] the target is neuraminidase. The settings on record: read-out: concentration for reduction of half enzymatic activity (neuraminidase).
The subject of data set [14] is influenza A/Chile/1/83 (H1N1) virus. The following applies: compared with ECG and EGC.
In data set [15] the test system is MDCK cells. The settings on record: read-out: dose that reduced cell viability about 50% (CC50).
The subject of data set [16] is influenza A/Chile/1/83 (H1N1) virus. The following applies: 500 μM.

In the case of `O=C/C=C/c1ccccc1` [CA, trans-cinnamaldehyde], the “virus yield of control (maximum inhibitory effect)” value in data set [1] (40 μM, treatment given 3 hours post infection) is on record as 29.7%. Also, the virus yield entry in data set [1] (200 μM) is given as “undetectable level”.
Regarding `CC1(C)[C@@H](O[C@H]2O[C@H](C(=O)O)[C@@H](O)[C@H](O)[C@H]2O[C@@H]2O[C@H](C(=O)O)[C@@H](O)[C@H](O)[C@H]2O)CC[C@]2(C)[C@H]3C(=O)C=C4[C@@H]5C[C@@](C)(C(=O)O)CC[C@]5(C)CC[C@@]4(C)[C@]3(C)CC[C@@H]12` [Glycyrrhizin], in data set [2] (10 mg/kg 1 day before and 1 and 4 days post infection, 10-50% lethal doses, saline controls no survivors), the survival result was “survived over the 21-day experimental period”. The “virus titers in the lungs, times lower than control mice” value in data set [2] (2 to 6 days after the infection) is “more than 10 times”. In addition, the “viral activity in the lungs” value in data set [2] (day 6) is “not detected”.
For `CCOC(=O)C1=C[C@@H](OC(CC)CC)[C@H](NC(C)=O)[C@@H](N)C1` [Oseltamivir, reference compound], the antiviral activity entry is reported as “about 58%” in data set [3] (100 μg/ml, 2 days incubation) and “less than 49%” in data set [3] (concentrations of less than 10 μg/ml). The cell viability entry in data set [4] is “about 100%”.
Turning to `C[C@@H]1O[C@@H](Oc2c(-c3ccc(O)c(O)c3)oc3cc(O)cc(O)c3c2=O)[C@H](O)[C@H](O)[C@H]1O` [Q3R, quercetin 3-rhamnoside], the antiviral activity result in data set [3] (10 μg/ml, 2 days incubation) is reported as “about 66%”; in data set [3] (100 μg/ml, 2 days incubation), “about 86%”. For the same compound, in [4], the cell viability result is “about 100%”.
Regarding `NC(=O)c1c[se]c([C@@H]2O[C@H](CO)[C@@H](O)[C@H]2O)n1` [Selenazofurin, selenazofurin], the “cytotoxic effect on cells” value in data set [5] is on record as “no cytotoxic effect”.
Regarding `O=c1c(O)c(-c2ccc(O)c(O)c2)oc2cc(O)cc(O)c12` [quercetin, Quercetin], the “decrease of mortality in the control group (infected and did not exercise)” value in [6] (quercetin 12.5 mg/kg via gavage for 7 days before viral challenge, 21 days monitoring) is 22%. In addition, the “susceptibility to infection (morbidity, mortality, symptom severity on days 5-7) associated with stressful exercise” value in data set [6] (quercetin 12.5 mg/kg via gavage for 7 days, P<0.05) is recorded as “offset the increase in susceptibility to infection”. Also, in [7], the “epithelial damage and leukocytic influx” value was “significantly reduced”; the “superoxide radicals production levels” value is “significantly reduced their levels”. The “lipid peroxidation (LPO) products level after supplementation (raised by 85% in influenza group vs normal control)” value in data set [7] (P<0.05) is 43%.
`[Se]` [selenium, Selenium]: in data set [8], the lung pathology entry is “began to diminish after day 6”. Besides, the influenza-induced apoptosis result in [9] is recorded as “Se deficiency enhanced influenza-induced apoptosis”.
For the compound (−)-epigallocatechin gallate [EGCG], the “inhibition of plaque forming activity” value in data set [10] is about 100%. Also, in [11], the “toxicity relative to derivatives” value was “less toxic than most of its derivatives”. Further, in data set [12], the EC50 was 22 to 28 µM. In addition, the IC50 in data set [13] is about 350 µM. Moreover, the hemagglutination inhibition activity result in [14] is given as “most effective”. The cytotoxic concentration (CC50) in data set [15] is 275 ± 22.8 µM. In data set [16], the “inhibition of viral RNA synthesis” value is given as “about 80%”.

The CC50 is the concentration at which the toxic effect on the cells reaches its halfway point.
